Measured values from US5001228A, “Bis-alkylamide azo polymerization initiators” (Wako Pure Chemical Industries, Ltd., priority 1988, dated 1991).

Experiments:
Solubility (15° C.) = type: physicochemical; details: for Solubility in DMF: dimethylformamide (DMF); for solubility: water
[1] = Decomposition rate constant; type: physicochemical; details: 80° C.

Row | Solubility in acetone (Solubility (15° C.)) | Solubility in DMF (Solubility (15° C.)) | Solubility in methanol (Solubility (15° C.)) | Solubility in toluene (Solubility (15° C.)) | solubility (Solubility (15° C.)) | Decomposition rate constant [1] | Structure (SMILES)
1 | ≥ 10% | ≥ 10% | ~5% | ≤ 1% | ≤ 10000 µg/mL | – | CC(C)(N=NC(C)(C)C(=O)NCc1ccc(Cl)cc1)C(=O)NCc1ccc(Cl)cc1 [Compound (3), 2,2'-azobis[N-(p-chlorobenzyl)-2-methylpropionamide]]
2 | ≤ 1% | 3% | ~9% | – | ≤ 10000 µg/mL | – | CC(C)(N=NC(C)(C)C(=O)NCc1ccncc1)C(=O)NCc1ccncc1 [Compound (5), 2,2'-azobis[N-[(pyridin-4-yl)methyl]-2-methylpropionamide]·2H2 O]
3 | ≤ 1% | ≤ 1% | ≥ 10% | ≤ 1% | ≥ 100000 µg/mL | – | CC(C)(N=NC(C)(C)C(=O)NCC1CCNCC1)C(=O)NCC1CCNCC1 [Compound (6), 2,2'-azobis[N-[(piperidin-4-yl)methyl]2-methylpropionamide]·2HCl]
4 | ≤ 1% | 1.5% | ≥ 10% | – | ≥ 100000 µg/mL | – | CC(C)(N=NC(C)(C)C(=O)NCCN1CCNCC1)C(=O)NCCN1CCNCC1 [Compound (7)]
5 | ≥ 10% | ≥ 10% | ≥ 10% | ≥ 10% | ≤ 10000 µg/mL | 2.80 × 10^-6 sec.^-1 | C=CCNC(=O)C(C)(C)N=NC(C)(C)C(=O)NCC=C [Compound (2), 2,2'-azobis[N-(2-propenyl)-2-methylpropionamide]]
6 | 3% | 1.5% | ≥ 10% | – | ≤ 10000 µg/mL | – | CC(C)(N=NC(C)(C)C(=O)NCc1cccnc1)C(=O)NCc1cccnc1 [Compound (4), 2,2'-azobis[N-[(pyridin-3-yl)methyl]-2-methylpropionamide]·2H2 O]
